Laboratory results from the NIST ThermoML archive (doi:10.1016/j.tca.2019.01.018).

Columns and labels:
[1] = Ring tensiometer
[2] = xn = mol fraction of the nth substance listed; details: Ring tensiometer

CCCCn1cc[n+](C)c1.F[B-](F)(F)F [1-butyl-3-methylimidazolium tetrafluoroborate]
[1]
Details	surface tension liquid-gas [mN/m]
298.15 K	44.6
308.15 K	43.65
318.15 K	42.95
328.15 K	42.25
338.15 K	41.55

CCCCCCn1cc[n+](C)c1.F[B-](F)(F)F [1-hexyl-3-methylimidazolium tetrafluoroborate] + O
surface tension liquid-gas [mN/m], [2]
Details	x1 = 0.3	x1 = 0.4	x1 = 0.5	x1 = 0.6	x1 = 0.7	x1 = 0.8	x1 = 0.9	x1 = 1
298.15 K	38.1	37.7	37.54	37.42	37.33	37.26	37.23	37.22
308.15 K	37.26	37.08	36.84	36.82	36.73	36.66	36.63	36.62
318.15 K	36.56	36.28	36.34	36.12	36.03	35.86	35.93	35.92
328.15 K	35.96	35.68	35.64	35.42	35.33	35.26	35.23	35.22
338.15 K	35.26	34.98	34.84	34.72	34.63	34.56	34.53	34.52

CCCCCCn1cc[n+](C)c1.F[B-](F)(F)F [1-hexyl-3-methylimidazolium tetrafluoroborate]
[1]
Details	surface tension liquid-gas [mN/m]
298.15 K	37.22
308.15 K	36.62
318.15 K	35.92
328.15 K	35.22
338.15 K	34.52

CCCCn1cc[n+](C)c1.F[B-](F)(F)F [1-butyl-3-methylimidazolium tetrafluoroborate] + O
surface tension liquid-gas [mN/m], [2]
Details	x1 = 0.02	x1 = 0.04	x1 = 0.06	x1 = 0.08	x1 = 0.1	x1 = 0.2	x1 = 0.4	x1 = 0.6	x1 = 0.8	x1 = 1
298.15 K	49.07	47.16	47.05	46.95	46.8	46.3	45.9	45.4	45	44.6
308.15 K	48.15	45.95	45.85	45.75	45.65	45.45	44.95	44.55	44.35	43.65
318.15 K	47.35	45.15	45.05	44.95	44.85	44.65	44.15	43.75	43.55	42.95
328.15 K	46.55	44.35	44.25	44.15	44.05	43.85	43.35	42.95	42.75	42.25
338.15 K	45.75	43.55	43.45	43.35	43.25	43.05	42.55	42.15	41.95	41.55
